Assay results as given in publication PMC12518996 (Frontiers in Pharmacology, 2025).

Key:
[1] = molecular target: CYP1A2 (Rattus norvegicus, UniProt P04799); assay: Metabolite formation by recombinant rat CYP1A2; type: in vitro ADME; details: trazodone 4 μM; NADPH; 37 °C, 40 min
Protocol: (§1) To confirm the role of individual CYP isoforms in metabolizing trazodone, recombinant human and rat CYP enzymes were employed in separate incubations. […] Each reaction was terminated with acetonitrile, centrifuged, and the supernatant was analyzed by identical UHPLC-Orbitrap setup outlined in §2.2, allowing direct comparison of metabolite spectra across all in-vitro systems. […] This procedure helped confirm the contributions of individual isoforms to specific biotransformation reactions.

[2] = molecular target: CYP3A4 (Homo sapiens, UniProt P08684); details: human hepatocytes; probe midazolam; 0.1-100 μM
Sequence of CYP3A4 (P08684 whole entry): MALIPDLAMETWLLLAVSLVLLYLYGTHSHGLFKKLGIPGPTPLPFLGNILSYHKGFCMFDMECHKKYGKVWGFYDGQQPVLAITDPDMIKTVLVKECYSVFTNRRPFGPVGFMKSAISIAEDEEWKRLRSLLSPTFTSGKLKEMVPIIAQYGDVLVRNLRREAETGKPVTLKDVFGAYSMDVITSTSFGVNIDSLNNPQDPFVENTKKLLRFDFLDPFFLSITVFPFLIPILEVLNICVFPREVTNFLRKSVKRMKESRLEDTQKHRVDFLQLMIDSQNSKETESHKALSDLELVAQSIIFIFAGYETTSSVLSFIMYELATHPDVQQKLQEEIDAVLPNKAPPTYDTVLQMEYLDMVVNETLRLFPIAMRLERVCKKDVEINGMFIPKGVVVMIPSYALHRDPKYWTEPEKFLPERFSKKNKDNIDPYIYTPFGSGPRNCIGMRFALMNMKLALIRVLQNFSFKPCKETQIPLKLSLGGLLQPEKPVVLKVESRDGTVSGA

[3] = molecular target: T1, CYP1A2 (Homo sapiens, UniProt P05177); assay: Metabolite formation by recombinant human CYP1A2; type: in vitro ADME; details: trazodone 4 μM; NADPH; 37 °C, 40 min
T1 sequence (P05177 1-516): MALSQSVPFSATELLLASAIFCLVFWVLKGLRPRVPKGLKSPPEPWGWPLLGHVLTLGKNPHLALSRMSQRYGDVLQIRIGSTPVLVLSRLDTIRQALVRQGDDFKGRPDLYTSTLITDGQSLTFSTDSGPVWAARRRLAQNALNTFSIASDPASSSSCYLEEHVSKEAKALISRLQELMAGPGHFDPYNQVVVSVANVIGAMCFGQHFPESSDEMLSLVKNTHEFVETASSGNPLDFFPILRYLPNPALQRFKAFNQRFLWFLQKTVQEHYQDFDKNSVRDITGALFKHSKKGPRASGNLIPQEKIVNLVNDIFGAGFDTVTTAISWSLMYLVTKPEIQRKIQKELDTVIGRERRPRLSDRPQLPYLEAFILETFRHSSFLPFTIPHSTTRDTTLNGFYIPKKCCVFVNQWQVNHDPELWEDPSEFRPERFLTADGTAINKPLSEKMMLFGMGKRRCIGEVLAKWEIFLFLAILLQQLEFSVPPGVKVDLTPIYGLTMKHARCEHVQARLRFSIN
Protocol: as §1

[4] = molecular target: T2, CYP2A6 (Homo sapiens, UniProt P11509); assay: Inhibition of CYP2A6 in human hepatocytes (coumarin probe)
T2 sequence (P11509 1-494): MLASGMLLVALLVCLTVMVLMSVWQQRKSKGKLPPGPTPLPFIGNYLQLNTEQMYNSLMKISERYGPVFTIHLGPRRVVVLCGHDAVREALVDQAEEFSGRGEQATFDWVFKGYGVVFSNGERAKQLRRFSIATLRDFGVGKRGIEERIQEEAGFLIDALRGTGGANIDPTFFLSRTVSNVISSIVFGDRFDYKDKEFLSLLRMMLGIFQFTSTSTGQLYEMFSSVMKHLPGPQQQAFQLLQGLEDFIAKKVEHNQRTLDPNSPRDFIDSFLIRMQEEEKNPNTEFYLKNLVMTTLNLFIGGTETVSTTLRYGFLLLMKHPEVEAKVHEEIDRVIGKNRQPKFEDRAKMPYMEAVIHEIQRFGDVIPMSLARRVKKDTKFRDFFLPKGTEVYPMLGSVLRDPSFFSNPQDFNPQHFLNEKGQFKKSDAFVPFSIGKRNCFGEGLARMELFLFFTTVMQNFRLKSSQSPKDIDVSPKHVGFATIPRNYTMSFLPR

[5] = molecular target: T1, CYP1A2; assay: biochemical
[6] = molecular target: T1, CYP1A2; details: human hepatocytes; probe phenacetin; 0.1-100 μM
[7] = molecular target: T3, CYP2A6 (Mus musculus, UniProt P20852); assay: biochemical
T3 sequence (P20852 1-494): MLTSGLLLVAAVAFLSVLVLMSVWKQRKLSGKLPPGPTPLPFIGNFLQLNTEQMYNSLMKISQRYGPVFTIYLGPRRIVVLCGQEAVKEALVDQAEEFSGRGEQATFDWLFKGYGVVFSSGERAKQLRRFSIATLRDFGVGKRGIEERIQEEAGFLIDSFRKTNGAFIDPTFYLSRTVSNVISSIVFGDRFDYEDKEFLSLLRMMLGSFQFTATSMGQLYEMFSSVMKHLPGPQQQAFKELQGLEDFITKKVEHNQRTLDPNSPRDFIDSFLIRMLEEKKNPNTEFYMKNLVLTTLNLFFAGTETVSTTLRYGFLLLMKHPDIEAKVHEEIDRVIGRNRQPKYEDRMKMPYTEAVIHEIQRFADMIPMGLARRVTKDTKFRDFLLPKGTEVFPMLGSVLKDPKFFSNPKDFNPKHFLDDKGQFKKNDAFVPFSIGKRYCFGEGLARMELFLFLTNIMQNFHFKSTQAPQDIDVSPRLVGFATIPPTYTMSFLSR

Sequence of CYP1A2 (Rattus norvegicus, UniProt P04799) (P04799 whole entry, canonical isoform): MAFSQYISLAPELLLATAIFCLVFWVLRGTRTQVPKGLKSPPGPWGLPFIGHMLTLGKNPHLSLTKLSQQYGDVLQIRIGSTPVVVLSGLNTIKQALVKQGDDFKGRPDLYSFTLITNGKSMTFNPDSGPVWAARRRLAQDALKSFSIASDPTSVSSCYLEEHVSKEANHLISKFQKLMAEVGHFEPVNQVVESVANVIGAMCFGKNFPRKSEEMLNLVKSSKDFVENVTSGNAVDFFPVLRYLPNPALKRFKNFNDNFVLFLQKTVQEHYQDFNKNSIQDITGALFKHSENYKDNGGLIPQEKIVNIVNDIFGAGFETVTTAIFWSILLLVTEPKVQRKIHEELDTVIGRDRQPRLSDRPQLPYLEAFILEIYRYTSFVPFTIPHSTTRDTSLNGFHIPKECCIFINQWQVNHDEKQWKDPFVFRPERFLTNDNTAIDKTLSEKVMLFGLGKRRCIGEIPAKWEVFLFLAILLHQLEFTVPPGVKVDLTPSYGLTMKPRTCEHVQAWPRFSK

Q: Clc1cccc(N2CCNCC2)c1 [mCPP, m-chlorophenylpiperazine] was tested. Which “Formation of trazodone phase I metabolite by recombinant rat CYP1A2 (as LC/MS peak areas)” value [1] did it give?
A: 2151

Q: What about the “IC50 value (µM), CYP3A4” value [2] of the same compound?
A: inactive

Q: What about the “Formation of trazodone phase I metabolite by recombinant human CYP1A2 (as LC/MS peak areas)” value [3] of the same compound?
A: 266

Q: And the IC50 [4]?
A: 29.8 µM

Q: What about the IC50 [5] of the same compound?
A: > 100 µM

Q: What about the “IC50 value (µM), CYP1A2” value [6] of the same compound?
A: inactive

Q: What about the IC50 [7] of the same compound?
A: > 100 µM
